The text below walks through data of patent publication US20120264735A1 (priority 2009, published 2012).

In the assay the target is T1, c-Met kinase (recombinant c-Met) (Homo sapiens, UniProt P08581).
T1 construct: 0.27 nM recombinant c-Met
T1 sequence (P08581 25-1390): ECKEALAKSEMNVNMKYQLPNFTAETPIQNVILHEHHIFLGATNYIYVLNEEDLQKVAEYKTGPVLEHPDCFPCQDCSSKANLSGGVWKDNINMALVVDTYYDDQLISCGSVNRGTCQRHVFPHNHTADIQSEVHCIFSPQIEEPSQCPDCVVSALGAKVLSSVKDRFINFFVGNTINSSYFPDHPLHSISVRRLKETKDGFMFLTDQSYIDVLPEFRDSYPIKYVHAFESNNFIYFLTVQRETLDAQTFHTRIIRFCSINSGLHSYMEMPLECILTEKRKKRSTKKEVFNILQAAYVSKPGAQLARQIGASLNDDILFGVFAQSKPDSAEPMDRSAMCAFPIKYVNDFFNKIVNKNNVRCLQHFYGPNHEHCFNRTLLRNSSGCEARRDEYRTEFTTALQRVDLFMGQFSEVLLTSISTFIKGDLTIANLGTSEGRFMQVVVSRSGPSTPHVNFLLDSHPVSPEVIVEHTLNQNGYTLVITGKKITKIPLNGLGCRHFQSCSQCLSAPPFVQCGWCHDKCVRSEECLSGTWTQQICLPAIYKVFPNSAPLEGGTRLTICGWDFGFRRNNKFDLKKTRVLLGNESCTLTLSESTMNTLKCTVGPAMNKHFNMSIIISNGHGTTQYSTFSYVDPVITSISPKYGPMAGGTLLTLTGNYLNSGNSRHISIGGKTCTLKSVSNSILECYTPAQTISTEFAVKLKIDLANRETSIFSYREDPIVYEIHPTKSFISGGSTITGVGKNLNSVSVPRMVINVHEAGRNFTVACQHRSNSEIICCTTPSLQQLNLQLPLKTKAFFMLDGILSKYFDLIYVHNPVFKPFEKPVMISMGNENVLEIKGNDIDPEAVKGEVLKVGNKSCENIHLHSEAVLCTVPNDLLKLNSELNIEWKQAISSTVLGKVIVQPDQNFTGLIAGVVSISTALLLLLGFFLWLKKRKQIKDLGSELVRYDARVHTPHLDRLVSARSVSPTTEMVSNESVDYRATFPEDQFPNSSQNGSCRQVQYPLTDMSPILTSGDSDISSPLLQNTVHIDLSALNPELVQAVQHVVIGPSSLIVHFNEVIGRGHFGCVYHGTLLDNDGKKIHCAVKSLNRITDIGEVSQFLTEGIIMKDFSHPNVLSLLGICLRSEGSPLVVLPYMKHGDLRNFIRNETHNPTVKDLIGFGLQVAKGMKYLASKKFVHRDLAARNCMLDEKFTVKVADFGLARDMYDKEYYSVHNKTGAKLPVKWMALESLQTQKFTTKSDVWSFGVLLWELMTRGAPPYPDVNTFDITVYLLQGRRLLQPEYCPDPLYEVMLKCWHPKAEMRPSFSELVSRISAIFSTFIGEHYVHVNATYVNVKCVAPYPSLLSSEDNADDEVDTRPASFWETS
The experiment in a line: In vitro kinase assay I (homogeneous time-resolved fluorescence tyrosine kinase assay). Format: biochemical. An outline of the steps: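 Biotinylated peptide (0.5 μM) phosphorylated by 0.2 nM recombinant c-Met with 50 μM MgATP, 60 min at room temperature, pH 7.4, 5% DMSO. EDTA stop; HTRF read with Eu-anti-phosphotyrosine antibody and streptavidin-APC. IC50 from 4-parameter logistic fit.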
What is called IC50 is the point on the concentration scale where inhibition reaches its midpoint. On to `CC1COCCN1c1cnc(-c2cccc(Cc3nn(-c4cnn(C)c4)ccc3=O)c2)nc1` (racemic) [Example 450, rac-3-{3-[5-(3-methylmorpholin-4-yl)pyrimidin-2-yl]benzyl}-1-(1-methyl-1H-pyrazol-4-yl)pyridazin-4(1H)-one], for which the IC50 was under 100 nM.

In the case of `CCOCCNc1cnc(-c2cccc(Cc3nn(-c4cnn(C)c4)ccc3=O)c2)nc1` [Example 454, 3-(3-{5-[(2-ethoxyethyl)amino]pyrimidin-2-yl}benzyl)-1-(1-methyl-1H-pyrazol-4-yl)pyridazin-4(1H)-one], the IC50 was under 100 nM. For `CCn1cc(-n2ccc(=O)c(Cc3cccc(-c4ncc(OC5COC5)cn4)c3)n2)cn1` [Example 165, 1-(1-ethyl-1H-pyrazol-4-yl)-3-{3-[5-(oxetan-3-yloxy)pyrimidin-2-yl]benzyl}pyridazin-4(1H)-one], the IC50 is under 100 nM. On to `CCn1cc(-n2ccc(=O)c(C(C)c3cccc(-c4ncn(CC)n4)c3)n2)cn1` (single isomer, unassigned) [Example 687, 1-(1-ethyl-1H-pyrazol-4-yl)-3-{(1R or S)-1-[3-(1-ethyl-1H-1,2,4-triazol-3-yl)phenyl]ethyl} pyridazin-4(1H)-one], for which the IC50 is under 100 nM. Turning to `Cn1cc(-n2ccc(=O)c(Cc3cccc(-c4ncn(CCS(C)(=O)=O)n4)c3)n2)cn1` [Example 714, 1-(1-methyl-1H-pyrazol-4-yl)-3-(3-{1-[2-(methylsulfonyl)ethyl]-1H-1,2,4-triazol-3-yl}benzyl)pyridazin-4(1H)-one], the IC50 was 100 to 1000 nM.

Turning to `CCc1nc(-c2cccc(Cc3nn(-c4cnn(C)c4)ccc3=O)c2)no1` [Example 739, 3-[3-(5-Ethyl-1,2,4-oxadiazole-3-yl)benzyl]-1-(1-methyl-1H-pyrazol-4-yl)pyridazin-4(1H)-one], the IC50 is under 100 nM. In the case of `Cn1cc(-n2ccc(=O)c(Cc3cccc(-c4ncc(OCC5(CO)COC5)cn4)c3)n2)cn1` [Example 268, 3-[3-(5-{[3-(hydroxymethyl)oxetan-3-yl]methoxy}pyrimidin-2-yl)benzyl]-1-(1-methyl-1H-pyrazol-4-yl)pyridazin-4(1H)-one], the IC50 was under 100 nM.

For the compound `CC(C)COC(=O)Nc1cccc(Cc2nn(-c3cnn(C4CCOCC4)c3)ccc2=O)c1` [Example 90, 2-methylpropyl [3-({4-oxo-1-[1-(tetrahydro-2H-pyran-4-yl)-1H-pyrazol-4-yl]-1,4-dihydropyridazin-3-yl}methyl)phenyl]carbamate], the IC50 lay within 100 to 1000 nM. To `CNC(=O)CCCn1cc(-n2ccc(=O)c(Cc3cccc(NC(=O)OCC(C)C)c3)n2)cn1` [Example 697, 2-methylpropyl {3-[(1-{1-[4-(methylamino)-4-oxobutyl]-1H-pyrazol-4-yl}-4-oxo-1,4-dihydropyridazin-3-yl)methyl]phenyl} carbamate] belongs under 100 nM; to `Cc1cnccc1-c1cnc(-c2cccc(Cc3nn(-c4cnn(C)c4)ccc3=O)c2)nc1` [Example 416, 1-(1-methyl-1H-pyrazol-4-yl)-3-{3-[5-(3-methylpyridin-4-yl)pyrimidin-2-yl]benzyl}pyridazin-4(1H)-one], under 100 nM.

Consider `O=C(NCCN1CCOCC1)Nc1cccc(Cc2nn(-c3ccc(F)c(F)c3)ccc2=O)c1` [Example 496, 1-(3-{[1-(3,4-difluorophenyl)-4-oxo-1,4-dihydropyridazin-3-yl]methyl}phenyl)-3-(2-morpholin-4-ylethyl)urea], for which the IC50 is under 100 nM. As to `Cn1cc(-n2ccc(=O)c(Cc3cccc(-c4ncc(O[C@H]5CC[C@@H](O)CC5)cn4)c3)n2)cn1` [Example 748, 3-(3-{5-[(cis-4-hydroxycyclohexyl)oxy]pyrimidin-2-yl}benzyl)-1-(1-methyl-1H-pyrazol-4-yl)pyridazin-4(1H)-one], the IC50 was under 100 nM.

For the compound `COCCCOC(=O)Nc1cccc(Cc2nn(-c3cnn(C)c3)ccc2=O)c1` [Example 575, 3-methoxypropyl (3-{[1-(1-methyl-1H-pyrazol-4-yl)-4-oxo-1,4-dihydropyridazin-3-yl]methyl}phenyl)carbamate], the IC50 was under 100 nM.
